Patent publication US20100120311A1, “METHOD FOR PROVIDING TEXTILES WITH DESENSITIZED SILVER COMPONENTS” (priority 2006, published 2010)

Test: Visual assessment of discoloration on exposure to light
Details: benzotriazole up to 5 g/g of silver ions, hydroxylamine hydrochloride up to 3 g/g of silver ions, without pinacryptol yellow

c1ccc2[nH]nnc2c1 [benzotriazole]
suppression of discoloration of formulation and textile by stabilizer: not capable, in the concentration used, of permanently suppressing either the discoloration of the formulation itself or the discoloration of the textile

Cl.NO [hydroxylamine hydrochloride]
suppression of discoloration of formulation and textile by stabilizer: not capable, in the concentration used, of permanently suppressing either the discoloration of the formulation itself or the discoloration of the textile
